Where “and” joins values, the source holds several entries; their conditions need not be identical. Equal values may be shown once. Marks after values point to notes of the source that are not given here.
Key:
[1] = test system: heart of neck-ligated Carausius morosus; assay: Semi-exposed heart bioassay (heart beat rate); format: in vivo; conditions: for % Activity relative to the effect of Carmo-HrTH-II (myotropic) / Heart rate, Difference: 20 pmol peptide in 150 μl; for % Activity relative to the effect of Carmo-HrTH-II (myotropic): heart rate increase relative to Carmo-HrTH-II = 100, NS = no significant increase; for Heart rate, Post-application: after application of 20 pmol peptide in 150 μl saline, average of first four counts; for Heart rate, Post-application / Heart rate, Pre-application: neck-ligated stick insects; for Heart rate, Pre-application: in saline before application, semi-exposed heart; for Heart rate, Difference: post- minus pre-application
Experimental: The semi-exposed heart bioassay was carried out as described ([Marco et al., 2018]) with adult stick insects between 1 and 2 months old that were ligated at the neck. Briefly, a ventral incision of the abdomen exposed the ventral cavity with the internal organs; a few drops of stick insect saline (pH 6.6; 15 mM NaCl, 18 mM KCl, 7.5 mM CaCl2, 2 mM HEPES, 50 mM MgCl2, and 184 mM glucose according to [Ejaz and Lange, 2008]) were added to the exposed part. The semi-isolated heart preparation was viewed with a dissecting microscope (12-fold magnification), and the number of observed heart beats (contractions of the heart muscle) was counted during a fixed period using a manual tally counter and a timer. Once the heart had stabilized, saline was replaced with the test solution. For this the peptide stock solution of 5 pmol μl^–1 was diluted with stick insect saline to the desired concentration and a final volume of 150 μl was used for each test.
Heart rates under normal saline served as controls. The change in heart rate after the application of the test solution was calculated as an average of the first four counts and was compared to the average heart rates counted in saline before the application of the test solution. This comparison of change in heart rates was done for all the peptides tested.

[2] = test system: ligated 6th instar Indian stick insects (Carausius morosus); assay: Carbohydrate-mobilization (hypertrehalosemic) in vivo assay; conditions: for % Activity relative to the effect of Carmo-HrTH-II (metabolic): 20 pmol peptide injected, carbohydrate increase relative to Carmo-HrTH-II = 100, NS = no significant increase; for Hemolymph carbohydrates, 90 min: 90 min after injection of 20 pmol peptide in 10 μl; for Hemolymph carbohydrates, 90 min / Hemolymph carbohydrates, Difference: neck-ligated 6th instar nymphs; for Hemolymph carbohydrates, Difference: 90 min minus 0 min, 20 pmol peptide in 10 μl injected; for Hemolymph carbohydrates, 0 min: before injection (0 min), 2 h after neck ligation, group later given 20 pmol peptide in 10 μl, 6th instar nymphs
Experimental: Sixth instar nymphs that were 1–2 days before molting were neck-ligated and used in the hypertrehalosemic in vivo assay as described in detail by [Gäde and Lohr (1982)]. Stock peptide solutions (5 pmol μl^–1) were diluted with distilled water to the desired concentration in 10 μl, which was injected into the stick insect nymphs.
In the first series of experiments, various doses of synthetic Carmo-HrTH-II and corpora cardiaca (CC) extract of C. morosus were used to determine the maximal hypertrehalosemic response of C. morosus. Hemolymph samples were taken from 17 to 18 days old 6th instar nymphs 2 h after they were neck-ligated and then 90 min after either CC extract or synthetic Carmo-HrTH-II was injected. Ligated nymphs injected with distilled water served as controls for handling stress. As depicted in Figures 1A,B, various doses of both Carmo-HrTH-II and CC extract increased the level of carbohydrates in the hemolymph in a dose-dependent manner. A dose of 0.04 pmol of synthetic Carmo-HrTH-II and the equivalent of 0.005 pairs of corpora cardiaca (pCC) were sufficient to give significant increases in hemolymph carbohydrates (p < 0.05). […] Doses of 0.1–0.5 pCC gave an average increase of 5.6 ± 0.6 mg carbohydrates ml^–1 hemolymph (Figure 1B); again, statistical analyses reveal no significant difference between the effect of these doses (p > 0.05).
Based on these pilot experiments, we selected a dose of 20 pmol for testing the analogs of Carmo-HrTH-II since such a dose of our lead compound, Carmo-HrTH-II had achieved maximal hypertrehalosemic activity.

| Substance | % Activity relative to the effect of Carmo-HrTH-II (myotropic) [1] | Heart rate, Post-application [1] | Heart rate, Pre-application [1] | Heart rate, Difference [1] | % Activity relative to the effect of Carmo-HrTH-II (metabolic) [2] | Hemolymph carbohydrates, 90 min [2] | Hemolymph carbohydrates, Difference [2] | Hemolymph carbohydrates, 0 min [2] | % Activity relative to the effect of Carmo-HrTH-II (metabolic) ([2]; listed as Ala^10 analog of Carmo-HrTH-II) |
| --- | --- | --- | --- | --- | --- | --- | --- | --- | --- |
| pGlu-Leu-Asn-Phe-Thr-Pro-Asn-Trp-Gly-Thr amide [Locmi-AKH-I, naturally-occurring AKH decapeptide bioanalog, reference compound] | 25% | 43 ± 4 beats min^−1 | 40 ± 4 beats min^−1 | 3 ± 1 beats min^−1 | 19% | 9.9 ± 1.2 mg/mL | 1.0 ± 1.2 mg/mL | 8.9 ± 1.3 mg/mL | – |
| pGlu-Leu-Thr-Ala-Thr-Pro-Asn-Trp-Gly-Thr amide [Ala^4-Carmo-HrTH-II] | – | 41 ± 4 beats min^−1 | 40 ± 4 beats min^−1 | 1 ± 1 beats min^−1 | – | 9.1 ± 2.4 mg/mL | 0.5 ± 2.3 mg/mL | 8.6 ± 2.2 mg/mL | – |
| pGlu-Leu-Thr-Phe-Ala-Pro-Asn-Trp-Gly-Thr amide [Ala^5-Carmo-HrTH-II] | – | 40 ± 7 beats min^−1 | 39 ± 7 beats min^−1 | 1 ± 2 beats min^−1 | – | 10.1 ± 1.3 mg/mL | -0.1 ± 0.1 mg/mL | 10.2 ± 1.2 mg/mL | – |
| pGlu-Leu-Thr-Phe-Thr-Ala-Asn-Trp-Gly-Thr amide [Ala^6-Carmo-HrTH-II] | – | 43 ± 5 beats min^−1 | 43 ± 5 beats min^−1 | 0 ± 0 beats min^−1 | – | 11.1 ± 0.9 mg/mL | 1.6 ± 1.1 mg/mL | 9.5 ± 1.2 mg/mL | – |
| pGlu-Leu-Thr-Phe-Thr-Pro-Ala-Trp-Gly-Thr amide [Ala^7-Carmo-HrTH-II] | – | 39 ± 4 beats min^−1 | 39 ± 4 beats min^−1 | 0 ± 1 beats min^−1 | 13% | 12.0 ± 2.2 mg/mL | 0.7 ± 0.6 mg/mL | 11.3 ± 2.0 mg/mL | – |
| pGlu-Leu-Thr-Phe-Thr-Pro-Asn-Ala-Gly-Thr amide [Ala^8-Carmo-HrTH-II] | – | 42 ± 4 beats min^−1 | 42 ± 5 beats min^−1 | 0 ± 2 beats min^−1 | – | 8.3 ± 1.9 mg/mL | -0.1 ± 1.3 mg/mL | 8.5 ± 2.1 mg/mL | – |
| pGlu-Leu-Thr-Phe-Thr-Pro-Asn-Trp*-Gly-Thr amide [Carmo-HrTH-I, endogenous hormone isolated from C. morosus CC; Trp^8 C-mannosylated, reference compound] | 108^b % | 54 ± 2 beats min^−1 | 41 beats min^−1 and 41 ± 4 beats min^−1 | 13 ± 2 beats min^−1 | 91^b % | 12.9 ± 1.9 mg/mL | 4.9 ± 1.1 mg/mL | 8.0 ± 1.6 mg/mL | – |
| pGlu-Leu-Thr-Phe-Thr-Pro-Asn-Trp-Ala-Thr amide [Ala^9-Carmo-HrTH-II] | – | 38 ± 2 beats min^−1 | 39 ± 2 beats min^−1 | −1 ± 1 beats min^−1 | 28% | 11.0 ± 1.5 mg/mL | 1.5 ± 0.9 mg/mL | 9.5 ± 1.9 mg/mL | – |
| pGlu-Leu-Thr-Phe-Thr-Pro-Asn-Trp-Gly-Ala amide [Ala^10-Carmo-HrTH-II] | – | 41 ± 5 beats min^−1 | 41 ± 5 beats min^−1 | 0 ± 1 beats min^−1 | – | 12.4 ± 1.6 mg/mL | 2.5 ± 1.0 mg/mL | 9.9 ± 2.3 mg/mL | about 50% |
| pGlu-Leu-Thr-Phe-Thr-Pro-Asn-Trp-Gly-Ser amide [Phyle-CC, naturally-occurring AKH decapeptide bioanalog, reference compound] | 67^b % | 46 ± 6 beats min^−1 | 38 ± 7 beats min^−1 | 8 ± 2 beats min^−1 | 109^b % | 14.1 ± 1.7 mg/mL | 5.9 ± 1.7 mg/mL | 8.2 ± 1.9 mg/mL | – |
| pGlu-Leu-Thr-Phe-Thr-Pro-Asn-Trp-Gly-Thr OH [Carmo-HrTH-II: free C-terminus] | 58% | 47 ± 3 beats min^−1 | 40 ± 5 beats min^−1 | 7 ± 3 beats min^−1 | 30% | 10.4 ± 2.2 mg/mL | 1.6 ± 1.6 mg/mL | 8.8 ± 2.1 mg/mL | – |
| pGlu-Leu-Thr-Phe-Thr-Pro-Ser-Trp amide [Aedae-AKH, naturally-occurring AKH octapeptide bioanalog, reference compound] | 8% | 43 ± 6 beats min^−1 | 42 ± 6 beats min^−1 | 1 ± 1 beats min^−1 | – | 8.8 ± 1.2 mg/mL | 0.7 ± 1.1 mg/mL | 8.1 ± 1.4 mg/mL | – |
| pGlu-Val-Asn-Phe-Thr-Pro-Asn-Trp-Gly-Thr amide [Rommi-CC, naturally-occurring AKH decapeptide bioanalog, reference compound] | 150^b % | 57 ± 4 beats min^−1 | 39 ± 3 beats min^−1 | 18 ± 6 beats min^−1 | 48% | 10.6 ± 1.6 mg/mL | 2.6 ± 1.5 mg/mL | 8.0 ± 1.4 mg/mL | – |
